In US9290777B2, “Putative cytokinin receptor and methods for use thereof” (NATIONAL UNIVERSITY OF SINGAPORE, priority 2007, dated 2016):

Tested on: ARR6
Test: qRT-PCR of cytokinin responsive gene after BA pulse, fold change vs untreated wild type
Type: cell-based, Arabidopsis thaliana
Procedure: For quantitative real-time PCR (qRT-PCR) analysis of cytokinin-inducible gene expression, seeds were germinated on MS medium with 3% (w/v) sucrose and grown for 6 days. Cytokinin treatment was carried out by incubating seedlings in the same MS+sucrose liquid medium (no agar) supplemented with 0, 0.01, 0.1, 1 or 5 μM [solubilized in 0.1% dimethylsulfoxide (DMSO) and diluted with the MS medium] for 5 min, 15 min, 30 min or 1 h. The control seedlings were incubated with DMSO (0.1%, the concentration used to dissolve cytokinins for the treatment) for the corresponding durations and used for expression analysis. Before RNA preparation, WT, OE and AS seedlings were pooled and stored in RNAlater solution (Qiagen, Valencia, Calif.). Total RNA was extracted using the Rneasy Plant Mini Kit (Qiagen). SYBRgreen RT-PCR reagents (Applied Biosystems) were used to synthesize double-stranded cDNA. The number of transcripts present in biological replicates each of WT, OE and AS seedlings, with or without BA and DMSO, was determined from three independent replicates. Fold induction of the transcripts was calculated according to the manufacturer's instructions (ABI Prism 7700 Sequence Detection System, User Bulletin #2).

SMILES: c1ccc(CNc2ncnc3nc[nH]c23)cc1 [benzyladenine]
- ARR6 fold change (BA 0.01 μM, 5 min, AS1, ↑ up): 4.12↑
- ARR6 fold change (BA 0.01 μM, 5 min, AS8, ↑ up): 7.1↑
- ARR6 fold change (BA 0.01 μM, 5 min, AS21, ↑ up): 9.2↑
- ARR6 fold change (BA 0.01 μM, 5 min, OE1, ↓ down): 5.51↓
- ARR6 fold change (BA 0.01 μM, 5 min, OE12, ↓ down): 6.87↓
- ARR6 fold change (BA 0.01 μM, 5 min, OE18, ↓ down): 8.56↓
- ARR6 fold change (BA 0.01 μM, 5 min, Wild type, ↑ up): 4.13↑
- ARR6 fold change (BA 0.01 μM, 15 min, AS1, ↑ up): 4.57↑
- ARR6 fold change (BA 0.01 μM, 15 min, AS8, ↑ up): 7.41↑
- ARR6 fold change (BA 0.01 μM, 15 min, AS21, ↑ up): 9.58↑
- ARR6 fold change (BA 0.01 μM, 15 min, OE1, ↓ down): 5.33↓
- ARR6 fold change (BA 0.01 μM, 15 min, OE12, ↓ down): 6.56↓
- ARR6 fold change (BA 0.01 μM, 15 min, OE18, ↓ down): 8.32↓
- ARR6 fold change (BA 0.01 μM, 15 min, Wild type, ↑ up): 4.67↑
- ARR6 fold change (BA 0.01 μM, 30 min, AS1, ↑ up): 5.98↑
- ARR6 fold change (BA 0.01 μM, 30 min, AS8, ↑ up): 7.86↑
- ARR6 fold change (BA 0.01 μM, 30 min, AS21, ↑ up): 9.79↑
- ARR6 fold change (BA 0.01 μM, 30 min, OE1, ↓ down): 5.11↓
- ARR6 fold change (BA 0.01 μM, 30 min, OE12, ↓ down): 6.13↓
- ARR6 fold change (BA 0.01 μM, 30 min, OE18, ↓ down): 8.13↓
- ARR6 fold change (BA 0.01 μM, 30 min, Wild type, ↑ up): 4.98↑
- ARR6 fold change (BA 0.01 μM, 1 h, AS1, ↑ up): 6.2↑
- ARR6 fold change (BA 0.01 μM, 1 h, AS8, ↑ up): 7.98↑
- ARR6 fold change (BA 0.01 μM, 1 h, AS21, ↑ up): 10.15↑
- ARR6 fold change (BA 0.01 μM, 1 h, OE1, ↓ down): 4.91↓
- ARR6 fold change (BA 0.01 μM, 1 h, OE12, ↓ down): 5.06↓
- ARR6 fold change (BA 0.01 μM, 1 h, OE18, ↓ down): 7.98↓
- ARR6 fold change (BA 0.01 μM, 1 h, Wild type, ↑ up): 5.15↑
- ARR6 fold change (BA 0.1 μM, 5 min, AS1, ↑ up): 6.14↑
- ARR6 fold change (BA 0.1 μM, 5 min, AS8, ↑ up): 8.12↑
- ARR6 fold change (BA 0.1 μM, 5 min, AS21, ↑ up): 10.31↑
- ARR6 fold change (BA 0.1 μM, 5 min, OE1, ↓ down): 5.1↓
- ARR6 fold change (BA 0.1 μM, 5 min, OE12, ↓ down): 5.91↓
- ARR6 fold change (BA 0.1 μM, 5 min, OE18, ↓ down): 7.89↓
- ARR6 fold change (BA 0.1 μM, 5 min, Wild type, ↑ up): 5.36↑
- ARR6 fold change (BA 0.1 μM, 15 min, AS1, ↑ up): 6.39↑
- ARR6 fold change (BA 0.1 μM, 15 min, AS8, ↑ up): 8.32↑
- ARR6 fold change (BA 0.1 μM, 15 min, AS21, ↑ up): 10.46↑
- ARR6 fold change (BA 0.1 μM, 15 min, OE1, ↓ down): 5.04↓
- ARR6 fold change (BA 0.1 μM, 15 min, OE12, ↓ down): 5.71↓
- ARR6 fold change (BA 0.1 μM, 15 min, OE18, ↓ down): 5.72↓
- ARR6 fold change (BA 0.1 μM, 15 min, Wild type, ↑ up): 5.58↑
- ARR6 fold change (BA 0.1 μM, 30 min, AS1, ↑ up): 6.69↑
- ARR6 fold change (BA 0.1 μM, 30 min, AS8, ↑ up): 8.57↑
- ARR6 fold change (BA 0.1 μM, 30 min, AS21, ↑ up): 10.68↑
- ARR6 fold change (BA 0.1 μM, 30 min, OE1, ↓ down): 4.9↓
- ARR6 fold change (BA 0.1 μM, 30 min, OE12, ↓ down): 5.59↓
- ARR6 fold change (BA 0.1 μM, 30 min, OE18, ↓ down): 5.36↓
- ARR6 fold change (BA 0.1 μM, 30 min, Wild type, ↑ up): 5.89↑
- ARR6 fold change (BA 0.1 μM, 1 h, AS1, ↑ up): 6.98↑
- ARR6 fold change (BA 0.1 μM, 1 h, AS8, ↑ up): 8.99↑
- ARR6 fold change (BA 0.1 μM, 1 h, AS21, ↑ up): 10.97↑
- ARR6 fold change (BA 0.1 μM, 1 h, OE1, ↓ down): 4.67↓
- ARR6 fold change (BA 0.1 μM, 1 h, OE12, ↓ down): 4.61↓
- ARR6 fold change (BA 0.1 μM, 1 h, OE18, ↓ down): 5.01↓
- ARR6 fold change (BA 0.1 μM, 1 h, Wild type, ↑ up): 5.99↑
- ARR6 fold change (BA 1.0 μM, 5 min, AS1, ↑ up): 7.43↑
- ARR6 fold change (BA 1.0 μM, 5 min, AS8, ↑ up): 9.01↑
- ARR6 fold change (BA 1.0 μM, 5 min, AS21, ↑ up): 10.99↑
- ARR6 fold change (BA 1.0 μM, 5 min, OE1, ↓ down): 4.96↓
- ARR6 fold change (BA 1.0 μM, 5 min, OE12, ↓ down): 5.19↓
- ARR6 fold change (BA 1.0 μM, 5 min, OE18, ↓ down): 4.36↓
- ARR6 fold change (BA 1.0 μM, 5 min, Wild type, ↑ up): 6.1↑
- ARR6 fold change (BA 1.0 μM, 15 min, AS1, ↑ up): 7.68↑
- ARR6 fold change (BA 1.0 μM, 15 min, AS8, ↑ up): 9.43↑
- ARR6 fold change (BA 1.0 μM, 15 min, AS21, ↑ up): 11.12↑
- ARR6 fold change (BA 1.0 μM, 15 min, OE1, ↓ down): 4.71↓
- ARR6 fold change (BA 1.0 μM, 15 min, OE12, ↓ down): 5.01↓
- ARR6 fold change (BA 1.0 μM, 15 min, OE18, ↓ down): 4.21↓
- ARR6 fold change (BA 1.0 μM, 15 min, Wild type, ↑ up): 6.31↑
- ARR6 fold change (BA 1.0 μM, 30 min, AS1, ↑ up): 7.73↑
- ARR6 fold change (BA 1.0 μM, 30 min, AS8, ↑ up): 9.69↑
- ARR6 fold change (BA 1.0 μM, 30 min, AS21, ↑ up): 11.35↑
- ARR6 fold change (BA 1.0 μM, 30 min, OE1, ↓ down): 4.49↓
- ARR6 fold change (BA 1.0 μM, 30 min, OE12, ↓ down): 4.89↓
- ARR6 fold change (BA 1.0 μM, 30 min, OE18, ↓ down): 4.01↓
- ARR6 fold change (BA 1.0 μM, 30 min, Wild type, ↑ up): 6.59↑
- ARR6 fold change (BA 1.0 μM, 1 h, AS1, ↑ up): 8.01↑
- ARR6 fold change (BA 1.0 μM, 1 h, AS8, ↑ up): 9.93↑
- ARR6 fold change (BA 1.0 μM, 1 h, AS21, ↑ up): 11.76↑
- ARR6 fold change (BA 1.0 μM, 1 h, OE1, ↓ down): 3.21↓
- ARR6 fold change (BA 1.0 μM, 1 h, OE12, ↓ down): 3.56↓
- ARR6 fold change (BA 1.0 μM, 1 h, OE18, ↓ down): 3.01↓
- ARR6 fold change (BA 1.0 μM, 1 h, Wild type, ↑ up): 6.87↑
- ARR6 fold change (BA 5.0 μM, 5 min, AS1, ↑ up): 7.98↑
- ARR6 fold change (BA 5.0 μM, 5 min, AS8, ↑ up): 9.98↑
- ARR6 fold change (BA 5.0 μM, 5 min, AS21, ↑ up): 11.43↑
- ARR6 fold change (BA 5.0 μM, 5 min, OE1, ↓ down): 4.19↓
- ARR6 fold change (BA 5.0 μM, 5 min, OE12, ↓ down): 4.67↓
- ARR6 fold change (BA 5.0 μM, 5 min, OE18, ↓ down): 3.45↓
- ARR6 fold change (BA 5.0 μM, 5 min, Wild type, ↑ up): 7.52↑
- ARR6 fold change (BA 5.0 μM, 15 min, AS1, ↑ up): 8.01↑
- ARR6 fold change (BA 5.0 μM, 15 min, AS8, ↑ up): 10.07↑
- ARR6 fold change (BA 5.0 μM, 15 min, AS21, ↑ up): 11.56↑
- ARR6 fold change (BA 5.0 μM, 15 min, OE1, ↓ down): 4.01↓
- ARR6 fold change (BA 5.0 μM, 15 min, OE12, ↓ down): 4.62↓
- ARR6 fold change (BA 5.0 μM, 15 min, OE18, ↓ down): 3.18↓
- ARR6 fold change (BA 5.0 μM, 15 min, Wild type, ↑ up): 7.69↑
- ARR6 fold change (BA 5.0 μM, 30 min, AS1, ↑ up): 8.23↑
- ARR6 fold change (BA 5.0 μM, 30 min, Wild type, ↑ up): 7.89↑
